According to PubChem BioAssay (NCI):
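Where inhibition never reached the appropriate level, the endpoint shown equals the highest concentration tested. Otherwise, values were interpolated linearly from a five-concentration, 48-hour dose response in 96-well plates. The concentration for 50% growth inhibition is given as GI50. TGI: concentration producing complete growth inhibition.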

Experiments:
Assay in all cases: NCI anticancer screen, dose series, 48 h
[1] = test system: NCI-H522 lung
[2] = test system: HOP-62 NSCLC
[3] = test system: SNB-19 CNS
[4] = test system: ACHN renal
[5] = test system: SNB-75 CNS
[6] = test system: EKVX NSCLC
[7] = test system: 786-0 renal
[8] = test system: SK-MEL-5 melanoma
[9] = test system: LOX IMVI melanoma
[10] = test system: SF-268 CNS
[11] = test system: COLO 205 colon
[12] = test system: OVCAR-8 ovarian
[13] = test system: NCI-H23 lung
[14] = test system: MDA-MB-231 breast
[15] = test system: MCF7 breast
[16] = test system: K-562 leukemia
[17] = test system: SK-MEL-2 melanoma
[18] = test system: T-47D breast
[19] = test system: SK-MEL-28 melanoma
[20] = test system: PC-3 prostate
[21] = test system: NCI-H460 lung
[22] = test system: SR leukemia
[23] = test system: OVCAR-5 ovarian
[24] = test system: UACC-62 melanoma
[25] = test system: HT29 colon
[26] = test system: SF-295 CNS
[27] = test system: RPMI-8226 leukemia
[28] = test system: SF-539 CNS
[29] = test system: UO-31 renal
[30] = test system: SN12C renal
[31] = test system: CAKI-1 renal
[32] = test system: IGROV1 ovarian
[33] = test system: HCT-15 colon
[34] = test system: HCT-116 colon
[35] = test system: SW-620 colon
[36] = test system: SK-OV-3 ovarian
[37] = test system: MALME-3M melanoma
[38] = test system: A549 NSCLC
[39] = test system: DU-145 prostate
[40] = test system: RXF 393 renal
[41] = test system: HL-60(TB) leukemia
[42] = test system: NCI/ADR-RES ovarian
[43] = test system: A498 renal
[44] = test system: TK-10 renal
[45] = test system: U251 CNS
[46] = test system: HOP-92 NSCLC
[47] = test system: OVCAR-4 ovarian
[48] = test system: MOLT-4 leukemia
[49] = test system: OVCAR-3 ovarian
[50] = test system: BT-549 breast
[51] = test system: UACC-257 melanoma
[52] = test system: MDA-MB-435
[53] = test system: M14 melanoma
[54] = test system: HS 578T breast
[55] = test system: CCRF-CEM leukemia
[56] = test system: KM12 colon
[57] = test system: HCC-2998 colon
[58] = test system: NCI-H226 lung

SMILES: Clc1ccc(-c2nc3c(-c4ccccc4)nc(-c4ccccc4)cn3c2-c2ccc(Cl)cc2)cc1
- GI50 [1]: > 100 µM
- TGI [1]: > 100 µM
- GI50 [2]: > 100 µM
- TGI [2]: > 100 µM
- GI50 [3]: > 100 µM
- TGI [3]: > 100 µM
- GI50 [4]: > 100 µM
- TGI [4]: > 100 µM
- GI50 [5]: 91.4 µM
- TGI [5]: > 100 µM
- GI50 [6]: > 100 µM
- TGI [6]: > 100 µM
- GI50 [7]: > 100 µM
- TGI [7]: > 100 µM
- GI50 [8]: > 100 µM
- TGI [8]: > 100 µM
- GI50 [9]: > 100 µM
- TGI [9]: > 100 µM
- GI50 [10]: > 100 µM
- TGI [10]: > 100 µM
- GI50 [11]: > 100 µM
- TGI [11]: > 100 µM
- GI50 [12]: > 100 µM
- TGI [12]: > 100 µM
- GI50 [13]: > 100 µM
- TGI [13]: > 100 µM
- GI50 [14]: > 100 µM
- TGI [14]: > 100 µM
- GI50 [15]: > 100 µM
- TGI [15]: > 100 µM
- GI50 [16]: > 100 µM
- TGI [16]: > 100 µM
- GI50 [17]: > 100 µM
- TGI [17]: > 100 µM
- GI50 [18]: > 100 µM
- TGI [18]: > 100 µM
- GI50 [19]: > 100 µM
- TGI [19]: > 100 µM
- GI50 [20]: > 100 µM
- TGI [20]: > 100 µM
- GI50 [21]: > 100 µM
- TGI [21]: > 100 µM
- GI50 [22]: > 100 µM
- TGI [22]: > 100 µM
- GI50 [23]: > 100 µM
- TGI [23]: > 100 µM
- GI50 [24]: > 100 µM
- TGI [24]: > 100 µM
- GI50 [25]: > 100 µM
- TGI [25]: > 100 µM
- GI50 [26]: > 100 µM
- TGI [26]: > 100 µM
- GI50 [27]: > 100 µM
- TGI [27]: > 100 µM
- GI50 [28]: > 100 µM
- TGI [28]: > 100 µM
- GI50 [29]: > 100 µM
- TGI [29]: > 100 µM
- GI50 [30]: > 100 µM
- TGI [30]: > 100 µM
- GI50 [31]: > 100 µM
- TGI [31]: > 100 µM
- GI50 [32]: > 100 µM
- TGI [32]: > 100 µM
- GI50 [33]: > 100 µM
- TGI [33]: > 100 µM
- GI50 [34]: > 100 µM
- TGI [34]: > 100 µM
- GI50 [35]: > 100 µM
- TGI [35]: > 100 µM
- GI50 [36]: > 100 µM
- TGI [36]: > 100 µM
- GI50 [37]: > 100 µM
- TGI [37]: > 100 µM
- GI50 [38]: > 100 µM
- TGI [38]: > 100 µM
- GI50 [39]: > 100 µM
- TGI [39]: > 100 µM
- GI50 [40]: > 100 µM
- TGI [40]: > 100 µM
- GI50 [41]: > 100 µM
- TGI [41]: > 100 µM
- GI50 [42]: > 100 µM
- TGI [42]: > 100 µM
- GI50 [43]: > 100 µM
- TGI [43]: > 100 µM
- GI50 [44]: > 100 µM
- TGI [44]: > 100 µM
- GI50 [45]: > 100 µM
- TGI [45]: > 100 µM
- GI50 [46]: > 100 µM
- TGI [46]: > 100 µM
- GI50 [47]: > 100 µM
- TGI [47]: > 100 µM
- GI50 [48]: > 100 µM
- TGI [48]: > 100 µM
- GI50 [49]: > 100 µM
- TGI [49]: > 100 µM
- GI50 [50]: > 100 µM
- TGI [50]: > 100 µM
- GI50 [51]: > 100 µM
- TGI [51]: > 100 µM
- GI50 [52]: > 100 µM
- TGI [52]: > 100 µM
- GI50 [53]: > 100 µM
- TGI [53]: > 100 µM
- GI50 [54]: > 100 µM
- TGI [54]: > 100 µM
- GI50 [55]: > 100 µM
- TGI [55]: > 100 µM
- GI50 [56]: > 100 µM
- TGI [56]: > 100 µM
- GI50 [57]: > 100 µM
- TGI [57]: > 100 µM

SMILES: C[C@@H]1CC[C@H]2[C@@H](C)C(OC/C=C/COC3O[C@@H]4O[C@@]5(C)CC[C@H]6[C@H](C)CC[C@@H]([C@H]3C)[C@@]46OO5)O[C@@H]3O[C@@]4(C)CC[C@@H]1[C@]32OO4 (stereo not given in full)
- GI50 [1]: 0.0898 µM
- TGI [1]: > 100 µM
- GI50 [2]: 0.0791 µM
- TGI [2]: 34.2 µM
- GI50 [3]: 5.19 µM
- TGI [3]: > 100 µM
- GI50 [4]: < 0.0169 µM
- GI50 [6]: 16 µM
- TGI [6]: > 100 µM
- GI50 [7]: 0.0168 µM
- TGI [7]: 18.6 µM
- GI50 [8]: 0.0491 µM
- TGI [8]: 18.6 µM
- GI50 [9]: < 0.01 µM
- TGI [9]: 11.4 µM
- GI50 [10]: 0.045 µM
- TGI [10]: > 47.1 µM
- GI50 [11]: < 0.01 µM
- TGI [11]: 0.228 µM
- GI50 [12]: < 0.01 µM
- TGI [12]: > 38 µM
- GI50 [13]: < 0.01 µM
- TGI [13]: 18.5 µM
- GI50 [14]: < 0.0269 µM
- TGI [14]: 1.11 µM
- GI50 [15]: < 0.01 µM
- TGI [15]: 20.1 µM
- GI50 [16]: < 0.0201 µM
- TGI [16]: > 41.6 µM
- GI50 [17]: 0.773 µM
- TGI [17]: > 100 µM
- GI50 [18]: < 0.01 µM
- TGI [18]: > 100 µM
- GI50 [19]: 1.32 µM
- TGI [19]: > 100 µM
- GI50 [20]: < 0.01 µM
- TGI [20]: > 100 µM
- GI50 [21]: < 0.01 µM
- TGI [21]: > 41.4 µM
- GI50 [22]: < 0.01 µM
- TGI [22]: 3.85 µM
- GI50 [23]: < 0.01 µM
- TGI [23]: 0.257 µM
- GI50 [24]: 0.0363 µM
- TGI [24]: > 100 µM
- GI50 [25]: < 0.01 µM
- TGI [25]: > 100 µM
- GI50 [26]: < 0.0252 µM
- GI50 [27]: < 0.01 µM
- TGI [27]: 5.77 µM
- GI50 [29]: 0.152 µM
- TGI [29]: > 92.9 µM
- GI50 [30]: < 0.0147 µM
- TGI [30]: 2.06 µM
- GI50 [31]: 0.046 µM
- TGI [31]: 2.87 µM
- GI50 [32]: 0.77 µM
- TGI [32]: 38 µM
- GI50 [33]: < 0.01 µM
- TGI [33]: > 33 µM
- GI50 [58]: < 0.0206 µM
- TGI [58]: 0.832 µM
- GI50 [34]: < 0.01 µM
- TGI [34]: 13.9 µM
- GI50 [35]: < 0.01 µM
- TGI [35]: > 100 µM
- GI50 [36]: 19.5 µM
- TGI [36]: > 100 µM
- GI50 [37]: 0.0428 µM
- TGI [37]: 61.5 µM
- GI50 [38]: < 0.0161 µM
- TGI [38]: > 68.3 µM
- GI50 [39]: 30.5 µM
- TGI [39]: > 100 µM
- GI50 [40]: < 0.01 µM
- TGI [40]: 28.2 µM
- GI50 [41]: < 0.01 µM
- GI50 [42]: 0.0887 µM
- TGI [42]: 14.8 µM
- GI50 [43]: 15.7 µM
- TGI [43]: > 100 µM
- GI50 [44]: < 0.0104 µM
- TGI [44]: 24.8 µM
- GI50 [45]: < 0.01 µM
- TGI [45]: > 20.9 µM
- GI50 [46]: < 0.0179 µM
- TGI [46]: 45.4 µM
- GI50 [48]: < 0.01 µM
- TGI [48]: > 47.2 µM
- GI50 [49]: < 0.0109 µM
- TGI [49]: 1.07 µM
- GI50 [50]: 0.0304 µM
- TGI [50]: > 100 µM
- GI50 [51]: 0.0401 µM
- TGI [51]: 48 µM
- GI50 [52]: 0.0161 µM
- TGI [52]: 25.1 µM
- GI50 [53]: 0.0265 µM
- TGI [53]: 19.1 µM
- GI50 [54]: 0.0311 µM
- TGI [54]: > 74.9 µM
- GI50 [55]: < 0.01 µM
- TGI [55]: > 50.6 µM
- GI50 [56]: < 0.01 µM
- GI50 [57]: 0.0376 µM
- TGI [57]: 12.1 µM
